Where two headings read alike, the source gives them in different places.
What was measured:
[1] = test system: Pectobacterium carotovorum SCC1; assay: Inhibition of soft rot lesion in tobacco leaf; type: in vivo
[2] = test system: Pectobacterium carotovorum SCC1; assay: Inhibition of soft rot lesion in cucumber leaf; type: in vivo
[3] = test system: cucumber leaf; assay: Promotion of growth of cucumber leaf; settings: for response vs control in vivo at 1 ppm / response vs control in vivo at 10 ppm / response vs control in vivo at 100 ppm: Cucumis sativus, read-out: Width of leaf; for Width of leaf: relative values with respect to the control group (89.9 mm) = 100.0
Experimental: Plant leaves were tested with test compounds by drenching. […] 3-5 days later, the width of the leaves was measured again to compare the growth of the leaves relative to the control group.

[4] = test system: Colletotrichum orbiculare; type: in vivo; settings: cucumber; for Number of anthractic lesions in first leaf: control 12.5; for Number of anthractic lesions in second leaf: control 96.8
[5] = test system: Colletotrichum acutatum; assay: Inhibition of anthracnose in red pepper fruit after soil drench; settings: for Appearance of anthracnose: control 50
[6] = 100 ppm, Table 5, control 73.75

NC(=O)CC1NC(=O)C2CCCN2C1=O (stereo not shown) [Compound No. 68, 3-carbamoylmethylhexahydropyrrolo[1,2-a]pyrazin-1,4-dione] gave an Area of lesion ([1]; 1 ppm, Table 5, control 73.75) of 10%, an Area of lesion ([1]; 10 ppm, Table 5, control 73.75) of 7.5% and an Area of lesion [1, 6] of 30%.

In the case of CC1NC(=O)C(Cc2ccc(O)cc2)NC1=O (stereo not shown) [Compound No. 10, 3-methyl-6-(4-hydroxybenzyl)-2,5-diketopiperazine], the melting point is reported as 276 to 280 °C (dec.).

CC(C)CC1NC(=O)CNC1=O (stereo not shown) [Compound No. 2, 3-(2-methylpropyl)-2,5-diketopiperazine] showed an Area of lesion ([1]; 1 ppm, Table 3, control 87.5) of 32.5%, an Area of lesion ([1]; 10 ppm, Table 3, control 87.5) of 40% and an Area of lesion ([1]; 100 ppm, Table 3, control 87.5) of 60%. For the same compound, the melting point was 241 to 244 °C, the Area of lesion ([2]; 1 ppm, Table 6, control 100) was 92.5% and the Area of lesion ([2]; 10 ppm, Table 6, control 100) was 82.5%. It also gave an Area of lesion ([2]; 100 ppm, Table 6, control 100) of 50%.

In the case of CC(C)CC1NC(=O)C2CCCN2C1=O (stereo not shown) [Compound No. 27, 3-(2-methylpropyl)hexahydropyrrolo[1,2-a]pyrazin-1,4-dione], the response vs control in vivo at 1 ppm [3] is reported as 111%, the response vs control in vivo at 10 ppm [3] is reported as 135% and the response vs control in vivo at 100 ppm [3] is reported as 129%.

In the case of “3-(indol-3-ylmethyl)hexahydropyrrolo[1,2-a]pyrazin-1,4-dione [Compound No. 30]”, the “Number of anthractic lesions in first leaf” value (from here on “Number … in first leaf”) ([4]; 0.1 ppm) is reported as 2.5, the “Number of anthractic lesions in second leaf” value (from here on “Number … in second leaf”) ([4]; 0.1 ppm) is reported as 66.8 and the “Number … in first leaf” value ([4]; 1 ppm) is reported as 3.0. For the same compound, the “Number … in second leaf” value ([4]; 1 ppm) was 39.0, the “Number … in first leaf” value ([4]; 10 ppm) was 7.0 and the “Number … in second leaf” value ([4]; 10 ppm) was 35.3. The “Number … in first leaf” value ([4]; 100 ppm) was 7.8, the “Number … in second leaf” value ([4]; 100 ppm) was 55.3 and the Appearance of anthracnose ([5]; 1 ppm) was 0%. The Appearance of anthracnose ([5]; 10 ppm) was 0%, the Appearance of anthracnose ([5]; 100 ppm) was 0% and the “Appearance of anthracnose / anthractic lesion (in words)” value ([5]; Table 10, FIG. 9) was “hardly observed”. For the same compound, the Area of lesion ([1]; 1 ppm, Table 4, control 100) was 2.5%, the Area of lesion ([1]; 10 ppm, Table 4, control 100) was 7.5% and the Area of lesion ([1]; 100 ppm, Table 4, control 100) was 2.5%. For the same compound, the Width of leaf ([3]; 1.0 ppm) was 101.6, the Width of leaf ([3]; 10 ppm) was 123.5 and the Width of leaf ([3]; 100 ppm) was 119.5. It also gave an Area of lesion ([2]; 1 ppm, Table 7, control 100) of 88%, an Area of lesion ([2]; 10 ppm, Table 7, control 100) of 75% and an Area of lesion ([2]; 100 ppm, Table 7, control 100) of 70%.

Work on O=C1C2CCCN2C(=O)C2CCCN12 (stereo not shown) [Compound No. 31, octahydropyrrolo[1,2-a:1′,2′-d]pyrazin-5,10-dione] yielded an Appearance of anthracnose ([5]; 1 ppm) of 25%, an Appearance of anthracnose ([5]; 10 ppm) of 25% and an Appearance of anthracnose ([5]; 100 ppm) of 0%. For the same compound, the Area of lesion ([1]; 1 ppm, Table 4, control 100) was 47.5%, the Area of lesion ([1]; 10 ppm, Table 4, control 100) was 60% and the Area of lesion ([1]; 100 ppm, Table 4, control 100) was 17.5%. The Width of leaf ([3]; 1.0 ppm) was 104.2, the Width of leaf ([3]; 10 ppm) was 103.2 and the Width of leaf ([3]; 100 ppm) was 102.8. For the same compound, the Area of lesion ([2]; 1 ppm, Table 7, control 100) was 95%, the Area of lesion ([2]; 10 ppm, Table 7, control 100) was 78% and the Area of lesion ([2]; 100 ppm, Table 7, control 100) was 80%.

In the case of CCCC1NC(=O)C(C)NC1=O (stereo not shown) [Compound No. 9, 3-methyl-6-(2-methylethyl)-2,5-diketopiperazine], the melting point is reported as 220 to 222 °C (dec.).

With O=C1CNC(=O)C(Cc2c[nH]c3ccccc23)N1 (stereo not shown) [Compound No. 5, 3-(indol-3-ylmethyl)-2,5-diketopiperazine] the Area of lesion ([1]; 1 ppm, Table 3, control 87.5) was 2.5%, the Area of lesion ([1]; 10 ppm, Table 3, control 87.5) was 5% and the Area of lesion ([1]; 100 ppm, Table 3, control 87.5) was 40%. The melting point was 280 to 284 °C (dec.).

In the case of CC(C)CC1NC(=O)C(CO)NC1=O (stereo not shown) [Compound No. 1, 3-hydroxymethyl-6-(2-methylpropyl)-2,5-diketopiperazine], the Area of lesion ([1]; 1 ppm, Table 3, control 87.5) is reported as 10%, the Area of lesion ([1]; 10 ppm, Table 3, control 87.5) is reported as 32.5% and the Area of lesion ([1]; 100 ppm, Table 3, control 87.5) is reported as 50%. The Area of lesion ([2]; 1 ppm, Table 6, control 100) was 95%, the Area of lesion ([2]; 10 ppm, Table 6, control 100) was 77.5% and the Area of lesion ([2]; 100 ppm, Table 6, control 100) was 50%.

Work on O=C1NC(Cc2ccccc2)C(=O)N2CCCC12 (stereo not shown) [Compound No. 24, 3-benzylhexahydropyrrolo[1,2-a]pyrazin-1,4-dione] yielded a response vs control in vivo at 1 ppm [3] of 98.2%, a response vs control in vivo at 10 ppm [3] of 104% and a response vs control in vivo at 100 ppm [3] of 102%.

For CC(C)C1NC(=O)CNC1=O (stereo not shown) [Compound No. 4, 3-isopropyl-2,5-diketopiperazine], the Area of lesion ([1]; 1 ppm, Table 3, control 87.5) was 17.5%, the Area of lesion ([1]; 10 ppm, Table 3, control 87.5) was 52.5% and the Area of lesion ([1]; 100 ppm, Table 3, control 87.5) was 52.5%. For the same compound, the Area of lesion ([2]; 1 ppm, Table 6, control 100) was 37.5%, the Area of lesion ([2]; 10 ppm, Table 6, control 100) was 45% and the Area of lesion ([2]; 100 ppm, Table 6, control 100) was 87.5%.

Compound CSCC[C@H]1NC(=O)[C@H]2CCCN2C1=O [Compound No. 65] has an Area of lesion ([1]; 1 ppm, Table 5, control 73.75) of 60%, an Area of lesion ([1]; 10 ppm, Table 5, control 73.75) of 57.5% and an Area of lesion [1, 6] of 52.5%.

For O=C1NC(Cc2ccc(O)cc2)C(=O)N2CCCC12 (stereo not shown) [Compound No. 23, 3-(4-hydroxybenzyl)hexahydropyrrolo[1,2-a]pyrazin-1,4-dione], the response vs control in vivo at 1 ppm [3] was 97.8%, the response vs control in vivo at 10 ppm [3] was 114% and the response vs control in vivo at 100 ppm [3] was 110%.

With CCC(C)C1NC(=O)C2CCCN2C1=O (stereo not shown) [Compound No. 60] the Area of lesion ([1]; 1 ppm, Table 5, control 73.75) was 33.7%, the Area of lesion ([1]; 10 ppm, Table 5, control 73.75) was 25% and the Area of lesion [1, 6] was 7.5%. For the same compound, the Area of lesion ([2]; 1 ppm, Table 8, control 100) was 50%, the Area of lesion ([2]; 10 ppm, Table 8, control 100) was 60% and the Area of lesion ([2]; 100 ppm, Table 8, control 100) was 27.5%.

From US20170204102A1, “AGRICULTURAL AGENT CONTAINING 2,5-DIKETOPIPERAZINE DERIVATIVE AS ACTIVE INGREDIENT” (NAPRO BIOTEC INC., priority 2010, published 2017)
